Laboratory results as given in patent US20060100275A1, “Agent for treating interstitial cystitis” (KISSEI PHARMACEUTICAL CO., LTD., priority 2004, published 2006).

Test system: capsaicin-sensitive sensory nerve
Experiment: Capsaicin-induced Evans Blue pigment leakage into mouse bladder (capsaicin-sensitive sensory nerve inhibition)
Assay type: in vivo
Details: for inhibition of capsaicin-sensitive sensory nerve (summary): female Balb/c mouse bladder, capsaicin stimulation
Protocol: A female Balb/c mouse (Japan SLC) which had been anesthetized by intraperitoneally administering 0.15 ml of 20% urethane was subjected to tracheal cannulation, using a polyethylene tube PE 50. A polyethylene tube PE 10 was inserted into the bladder via a urethra, and hydrochloride of ethyl (−)-2-[4-[2-[[(1S,2R)-2-hydroxy-2-(4-hydroxyphenyl)-1-methy lethyl]amino]ethyl]-2,5-dimethylphenoxy]acetate (to be referred to as “compound 1” hereinafter), which had been dissolved in physiological saline and 2 equivalents of sodium hydroxide to a concentration of 10 μM and further diluted to various concentrations with physiological saline, was injected through the tube. After 1 hour from the injection, a solution (10 ml/kg) of Evans Blue (30 mg/kg) and capsaicin (0.3 mg/kg) dissolved in physiological saline containing 0.1% DMSO and 0.1% Tween 80 was administered through caudal vein. Precisely 5 minutes after the administration, the animal was sacrificed by cervical vertebrae dislocation to extract the bladder. After removing urine and blood from the extracted bladder, wet weight of the bladder was measured, and the extracted bladder was put into each well of a 96 well microplate into which formamide had been dispensed in 150 μl portions in advance. After soaking the bladder overnight in formamide, the pigment in the bladder tissue was determined by measuring absorbance of 100 μl of the supernatant at a wavelength of 620 nm. In addition, the amount of the Evans Blue pigment per 1 mg bladder wet weight was calculated. In this connection, a mouse in which physiological saline was injected into the bladder and the Evans Blue solution containing no capsaicin was administered thereto was used as the normal control.
The results are shown in FIG. 1 by average value ± standard deviation. Inter-group significant difference between normal control group and capsaicin stimulation group was examined by student's t-test. Inter-group significant difference between compound 1 administration group and un-administration group was examined by a one dimensional analysis of variation and subsequent Dunnett's inter-multigroup comparison. A value of p<0.05 was regarded as significant.
The pigment in the bladder tissue was determined in the same manner as in Test Example 1, except that Tolterodine was used instead of the compound 1 and Hartman's solution was used instead of the physiological saline and 2 equivalents of sodium hydroxide. In this connection, a mouse in which Hartman's solution was injected into the bladder and the Evans Blue solution containing no capsaicin was administered thereto was used as the normal control.

[1] = female Balb/c mouse, injected into the bladder 1 hour before i.v. Evans Blue 30 mg/kg + capsaicin 0.3 mg/kg, various concentrations, vs solvent group

Structure (SMILES): Cc1ccc(O)c([C@H](CCN(C(C)C)C(C)C)c2ccccc2)c1 [Tolterodine, reference compound]
- inhibition of capsaicin-sensitive sensory nerve (summary): did not inhibit the capsaicin-sensitive sensory nerve
- amount of Evans Blue pigment in bladder tissue [1]: Significant difference in the amount of Evans Blue pigment was not found

Structure (SMILES): CCOC(=O)COc1cc(C)c(CCN[C@@H](C)[C@H](O)c2ccc(O)cc2)cc1C [compound 1, ethyl (−)-2-[4-[2-[[(1S,2R)-2-hydroxy-2-(4-hydroxyphenyl)-1-methylethyl]amino]ethyl]-2,5-dimethylphenoxy]acetate]
- amount of Evans Blue pigment in bladder tissue (1 μM administration group, injected into the bladder, p<0.01 vs solvent group): significantly reduced
- inhibition of capsaicin-sensitive sensory nerve (summary): markedly inhibited the capsaicin-sensitive sensory nerve
- amount of Evans Blue pigment in bladder tissue [1]: concentration-dependently reduced the amount of Evans Blue pigment
